From patent US9458179B2, “Quinuclidine, 1-azabicyclo[2.2.1]heptane, 1-azabicyclo [3.2.1]octane, and 1-azabicyclo[3.2.2]nonane compounds as alpha-7 nicotinic acetylcholine receptor ligands” (BRISTOL-MYERS SQUIBB COMPANY, priority 2012, dated 2016)

biological target: T1, α-7 nicotinic ACh receptor ion channel (Rattus norvegicus, UniProt Q05941); test: Ca2+-sensitive fluorescence-based FLIPR assay of α7 nicotinic receptor channel function (agonist activity); assay type: cell-based; details: FLIPR α7-HI (EC50, nM), HEK 293 cells, Ca2+ flux
T1 construct: expressed in transfected cells
Procedure: II) A Ca^2+-Sensitive, Fluorescence-Based Assay α-7 for Nicotinic Acetylcholine Receptor Channel Function in Mammalian Cells (“FLIPR”).
Lead compounds are evaluated for agonist activity at α-7, α3β4, α4αβ2, and α1β1δ1ε sub-types of nicotinic ACh receptor ion channels expressed in mammalian HEK 293 cells. Agonist potency and efficacy values are determined from kinetic fluorescence Ca^2+ influx measurements made using a 384 well FLIPR (Fluorescence Image Plate Reader). […] In this assay, channel expressing HEK cell lines seeded in 384 well assay plates are loaded with a membrane permeant fluorescent Ca^2+ indicator dye, whose 510 nm green emission signal increases in response to elevation of intracellular Ca^2+ concentration. The basal fluorescence from the cells is monitored in real time, followed by the acute addition of test compounds.
Reagents: The acetomethoxy (AM) ester of the Ca^2+ indicator dye Fluo-4 was obtained from InVitrogen, (Carlsbad, Calif.). Acetylcholine and all buffer constituents were purchased from Sigma Chemical Company, St. Louis, Mo. G418 and Minimal Essential Medium were purchased from InVitrogen Life Technologies, Carlsbad, Calif. Fetal bovine serum was purchased from (InVitrogen, Carlsbad, Calif.).
HEK-293 cells were grown in Minimal Essential Medium containing 10% (v/v) fetal bovine serum at 37° C. in a 5% CO2 incubator. HEK-293 cells stably expressing the ion channels were grown in the same medium with the addition of 500 μg/ml G418.
HEK-293 cells expressing the ion channels of interest were plated in 384 well, black-walled, clear-bottomed, poly-D-lysine coated plates at a density of ˜20,000 cells/well in 20 μl of Minimal Essential Medium containing 10% (v/v) fetal bovine serum and incubated for 2 days at 29° C. in a 5% CO2 incubator. Prior to assay, cells were loaded with the Fluo-4 AM ester. […] Dye loading was allowed to proceed for 90 minutes at room temperature at which time the dye loading solution was removed and replaced with 40 μl/well of Hanks buffer. Cells loaded with dye were loaded onto a FLIPR384 (Molecular Devices, Sunnyvale, Calif.). […] Emission was filtered using a 540+/−30 nm bandpass filter. For evaluation of the effects of test compounds using the Ca^2+ flux assay, compounds to be tested were provided in assay ready plates. For nicotinic receptor ion channel expressing cells, the assay was initiated by the addition of 20 μl/well of Hanks buffer containing test compounds. For all assays, data were collected at 1 Hz for 10 seconds (baseline), at which time the compound containing stimulus buffers are added, and further measurements collected at 0.33 Hz for 3 min.
The statistical robustness of the nicotinic receptor Ca^2+ flux assays is determined from blanks and totals wells. […] The raw fluorescence units data files generated on the FLIPR plate reader are automatically exported and processed by in-house data analysis tools. The reduced percent activation data for each concentration of test compound are fit using MathIQ fitting engine (ID Business Solutions Limited, Surrey, UK). Data were analyzed by fitting maximum amplitudes of change in fluorescence, for Ca^2+ flux for a given condition of test compound. […] Test compound efficacy values (Ymax values) are expressed relative to a maximal response to acetylcholine in the total wells.

T1 sequence (Q05941 23-502): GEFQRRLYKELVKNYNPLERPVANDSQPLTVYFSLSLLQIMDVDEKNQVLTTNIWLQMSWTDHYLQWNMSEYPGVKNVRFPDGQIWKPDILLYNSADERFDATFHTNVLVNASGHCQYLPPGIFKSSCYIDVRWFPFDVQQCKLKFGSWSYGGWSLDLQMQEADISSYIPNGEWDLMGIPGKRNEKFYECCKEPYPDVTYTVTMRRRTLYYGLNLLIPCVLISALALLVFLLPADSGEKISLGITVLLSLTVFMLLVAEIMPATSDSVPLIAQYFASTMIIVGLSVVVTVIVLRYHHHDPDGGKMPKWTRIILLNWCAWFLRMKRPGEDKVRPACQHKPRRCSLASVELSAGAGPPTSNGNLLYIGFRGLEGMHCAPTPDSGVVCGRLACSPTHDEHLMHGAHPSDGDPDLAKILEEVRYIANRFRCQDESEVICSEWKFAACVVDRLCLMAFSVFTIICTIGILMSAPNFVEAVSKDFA

First: Clc1cnc(NC2=NCC3(CN4CCC3CC4)N2)nc1 (centres unmarked) [Example 17]
Second: CN1C(Nc2ccc3ccccc3n2)=NCC12CN1CCC2CC1 (centres unmarked) [Example 40]
The EC50 of the first is 3.3-fold lower: 286 nM for the first, 942 nM for the second. The first is the more potent here.

same assay, conditions: FLIPR α7-HI (EC50, nM), HEK 293 cells, Ca2+ flux; Table 1, activity class

First: CN1C(Nc2ncc3ccccc3n2)=NCC12CN1CCC2CC1 (centres unmarked) [Example 27]
Second: CN1C(Nc2ccc3ccccc3n2)=NCC12CN1CCC2CC1 (centres unmarked) [Example 40]
The EC50 of the first is higher: 1000 to 100000 nM for the first, 100 to 1000 nM for the second. The second is the more potent here.

First: COc1ccc2nc(NC3=NCC4(CN5CCC4CC5)N3)sc2n1 (centres unmarked) [Example 46]
Second: CN(C)c1ccc2nc(NC3=NCC4(CN5CCC4CC5)N3)sc2n1 (centres unmarked) [Example 48, N˜2˜-(1′,5′-Dihydrospiro[4-azabicyclo[2.2.2]octane-2,4′-imidazol]-2′-yl)-N˜5˜,N˜5˜-dimethyl[1,3]thiazolo[5,4-b]pyridine-2,5-diamine]
The EC50 of the first is lower: 100 to 1000 nM for the first, 1000 to 100000 nM for the second.

`Brc1ccc2c(NC3=NCC4(CN5CCC4CC5)N3)ncnn12` (centres unmarked) [Example 66] and `Clc1ccc2c(NC3=NCC4(CN5CCC4CC5)N3)ncnn12` (centres unmarked) [Example 65, N-(7-Chloropyrrolo[1,2-f][1,2,4]triazin-4-yl)-3,5-dihydro-1′-azaspiro[imidazole-4,3′-bicyclo[2.2.2]octan]-2-amine] fall in the same range of EC50: 100 to 1000 nM for the first, 100 to 1000 nM for the second.

First: c1ccc(COc2ccc3nc(NC4=NC5(CN4)CN4CCC5CC4)sc3n2)cc1 (centres unmarked) [Example 39, N-(5-(benzyloxy)[1,3]thiazolo[5,4-b]pyridin-2-yl)-1′,5′-dihydrospiro[4-azabicyclo[2.2.2]octane-2,4′-imidazol]-2′-amine]
Second: COc1ccc2nc(NC3=NCC4(CN5CCC4CC5)N3C)sc2n1 (centres unmarked) [Example 47]
The EC50 of the first is higher: greater than 1e+06 nM for the first, 100 to 1000 nM for the second.

First: c1ccc2oc(NC3=NCC4(CN5CCC4CC5)N3)nc2c1 (centres unmarked) [Example 59]
Second: Clc1ccc2oc(NC3=NCC4(CN5CCC4CC5)N3)nc2c1 (centres unmarked) [Example 57]
The EC50 of the first is lower: less than 100 nM for the first, 100 to 1000 nM for the second.

`CCN1C(Nc2ncc(-c3ccccc3)s2)=NCC12CN1CCC2CC1` (centres unmarked) [Example 6] and `CN1C(Nc2nc3ccc(F)nc3s2)=NCC12CN1CCC2CC1` (centres unmarked) [Example 45] fall in the same range of EC50: 1000 to 100000 nM for the first, 1000 to 100000 nM for the second.

`CN1C(Nc2nccs2)=NCC12CN1CCC2CC1` (centres unmarked) [Example 10] and `CN1C(Nc2ccc(Cl)cn2)=NCC12CN1CCC2CC1` (centres unmarked) [Example 14] fall in the same range of EC50: 1000 to 100000 nM for the first, 1000 to 100000 nM for the second.

First: c1ccc2c(NC3=NCC4(CN5CCC4CC5)N3)ncnc2c1 (centres unmarked) [Example 23]
Second: c1ccc2sc(NC3=NCC4(CN5CCC4CC5)N3)nc2c1 (single isomer, unassigned) [Example 11a]
The EC50 of the first is higher: 100 to 1000 nM for the first, less than 100 nM for the second.

First: Cc1ccc2nc(NC3=NCC4(CN5CCC4CC5)N3)oc2n1 (centres unmarked) [Example 62, N-(3,5-Dihydro-1′-azaspiro[imidazole-4,3′-bicyclo[2.2.2]octane]-2-yl)-5-methyloxazolo[5,4-b]pyridin-2-amine]
Second: Cc1ccc2nc(NC3=NCC4(CN5CCC4CC5)N3)oc2c1 (centres unmarked) [Example 8b]
The EC50 of the first is lower: 100 to 1000 nM for the first, 1000 to 100000 nM for the second. The first is the more potent here.

First: c1ccn2cc(NC3=NCC4(CN5CCC4CC5)N3)nc2c1 (centres unmarked) [Example 37]
Second: c1ccn2nc(NC3=NCC4(CN5CCC4CC5)N3)nc2c1 (centres unmarked) [Example 34]
The EC50 of the first is higher: 1000 to 100000 nM for the first, 100 to 1000 nM for the second.

`Clc1cnc(NC2=NCC3(CN4CCC3CC4)N2)nc1` (centres unmarked) [Example 17] and `Clc1cnc(NC2=NCC3(CN4CCC3CC4)N2)cn1` (centres unmarked) [Example 7, N-(5-Chloro-2-pyrazinyl)-1′,5′-dihydrospiro[4-azabicyclo[2.2.2]octane-2,4′-imidazol]-2′-amine] fall in the same range of EC50: 100 to 1000 nM for the first, 100 to 1000 nM for the second.

First: c1cn(-c2cc(NC3=NCC4(CN5CCC4CC5)N3)ncn2)cn1 (centres unmarked) [Example 61]
Second: Clc1ccc(NC2=NCC3(CN4CCC3CC4)N2)nc1 (centres unmarked) [Example 13]
The EC50 of the first is lower: 100 to 1000 nM for the first, 1000 to 100000 nM for the second. The first is the more potent here.

`CN1C(Nc2nc3ccc(Cl)nc3s2)=NCC12CN1CCC2CC1` (centres unmarked) [Example 29] and `CN1C(Nc2nc3cc(Cl)ccc3o2)=NCC12CN1CCC2CC1` (centres unmarked) [Example 58] fall in the same range of EC50: 100 to 1000 nM for the first, 100 to 1000 nM for the second.

Compared with `O=c1ccc2nc(NC3=NCC4(CN5CCC4CC5)N3)sc2[nH]1` (centres unmarked) [Example 42, 2-(1′,5′-Dihydrospiro[4-azabicyclo[2.2.2]octane-2,4′-imidazol]-2′-ylamino)[1,3]thiazolo[5,4-b]pyridin-5 (4H)-one], `COc1ncnc2sc(NC3=NCC4(CN5CCC4CC5)N3)nc12` (centres unmarked) [Example 38] is higher in EC50: 100 to 1000 nM for the first, 1000 to 100000 nM for the second.

same assay, conditions: FLIPR α7-HI (EC50, nM), HEK 293 cells, Ca2+ flux; Table 2, activity class column

In the case of `c1ccc(-c2cnc(NC3=NC4(CO3)CN3CCC4CC3)s2)cc1` (centres unmarked) [Example 68, N-(5-Phenylthiazol-2-yl)-5H-1′-azaspiro[oxazole-4,3′-bicyclo[2.2.2]octan]-2-amine], the EC50 is reported as 100 to 1000 nM.

same assay, conditions: FLIPR α7-HI (EC50, nM), HEK 293 cells, Ca2+ flux; Table 3

`c1csc(NC2=NCCC3(CN4CCC3CC4)O2)n1` (centres unmarked) [Example 73] showed an EC50 of 4530 nM.

same assay, conditions: FLIPR α7-HI (EC50, nM), HEK 293 cells, Ca2+ flux; Table 3, activity class

`Clc1ccc(NC2=NCCC3(CN4CCC3CC4)O2)nn1` (centres unmarked) [Example 83] and `Clc1cnc(NC2=NCCC3(CN4CCC3CC4)O2)cn1` (centres unmarked) [Example 72, N-(5-Chloropyrazin-2-yl)-4,5-dihydro-1′-azaspiro[[1,3]oxazine-6,3′-bicyclo[2.2.2]octan]-2-amine] fall in the same range of EC50: 1000 to 100000 nM for the first, 1000 to 100000 nM for the second.

`c1csc(NC2=NCCC3(CN4CCC3CC4)O2)n1` (centres unmarked) [Example 73] and `Clc1cnc(NC2=NCCC3(CN4CCC3CC4)O2)nc1` (centres unmarked) [Example 78] fall in the same range of EC50: 1000 to 100000 nM for the first, 1000 to 100000 nM for the second.

`COc1ccc2nc(NC3=NCCC4(CN5CCC4CC5)O3)sc2c1` (centres unmarked) [Example 70, N-(6-Methoxybenzo[d]thiazol-2-yl)-4,5-dihydro-1′-azaspiro[[1,3]oxazine-6,3′-bicyclo[2.2.2]octan]-2-amine] and `c1ccc2sc(NC3=NCCC4(CN5CCC4CC5)O3)nc2c1` (centres unmarked) [Example 74] fall in the same range of EC50: 100 to 1000 nM for the first, 100 to 1000 nM for the second.

Compared with `c1ccc2cc(NC3=NCCC4(CN5CCC4CC5)O3)ncc2c1` (single isomer, unassigned) [Example 76b], `Brc1ccc2nc(NC3=NCCC4(CN5CCC4CC5)O3)sc2n1` (centres unmarked) [Example 87] is lower in EC50: greater than 1e+06 nM for the first, 1000 to 100000 nM for the second. The second is the more potent here.

same assay, conditions: HEK 293 cells, Ca2+ flux; read-out: FLIPR α7-HI (EC50)

Work on `c1ccc2[nH]c(NC3=NCC4(CN5CCC4CC5)N3)nc2c1` (centres unmarked) [Example 16] yielded an EC50 of 1290 nM.
